In patent US20080200470A1, “Diaza- or Thiazadione Derivatives With Neuroprotective Activity” (Schwartz Pharma S.L, priority 2005, published 2008):
Structures can show the parent of a compound that is named as a salt. Marks after values point to notes of the source that are not given here.

Columns and labels:
[1] = tested on: primary cultures of rat hippocampus; test: Neurotoxicity due to deprivation of trophic factors (serum deprivation), MTT; type: cell-based; settings: serum-free medium 48 hours
Procedure: (§1) The capacity to prevent neurotoxicity induced by hypoxia/hypoglycaemia in primary cultures of rat hippocampus (E18) was determined. […] After centrifuging at 700 g, the pellet was mechanically redispersed. The density of the cellular suspension was measured and aliquots were taken to culture on Petri dishes, previously coated with poly-lysine, using the same medium. […] Before the hypoxia, the compounds to be studied were added at variable times and concentrations.
In this case, an Eagle medium (DMEM) modified with 10% of calf serum was initially used and, after 10 days, the cultures were transferred to the DMEM culture deprived of calf serum.

[2] = tested on: primary cultures of rat hippocampus; test: Neurotoxicity induced by hypoxia/hypoglycaemia (oxygen-glucose deprivation), MTT; type: cell-based; settings: glucose-free medium, 2 hours 95% N2/5% CO2, MTT
Procedure: as §1

[3] = tested on: cerebral infarction after intraluminal occlusion of the middle cerebral artery (MCA) in rats; test: Focal ischemic model in rats, occlusion of the middle cerebral artery; type: in vivo; settings: rat, 40 μg/kg intravenously, 24 hours after ischemic damage

Row | melting point | Compound | also measured
1 | 206 to 208 °C | O=C1C2CCCCN2C(=O)N1CCCCNCc1ccc2ccccc2n1 (stereo not shown) (as salt: salt) [kk, 2-[4-[(2-Quinolyl)methylamino]butyl]-1,3-dioxoperhydroimidazo[1,5-a]pyridine] | 
2 | 70 to 74 °C | CCOc1ccccc1OCCNCCCCN1C(=O)CSC1=O (as salt: salt) [ff, 3-[4-[2-(o-Ethoxyphenoxy)ethylamino]butyl]-2,4-dioxothiazolidine] | 
3 | 140 to 143 °C | O=C1C2CCCN2C(=O)N1CCCCNCCOc1cccc(Br)c1 (stereo not shown) (as salt: salt) | 
4 | 115 to 118 °C | CCc1ccccc1OCCNCCCCN1C(=O)C2CCCN2C1=O (stereo not shown) (as salt: salt) | 
5 | 105 to 108 °C | CCOc1ccccc1OCCNCCCCCCCCN1C(=O)CSC1=O (as salt: salt) [hh, 3-[8-[2-(o-Ethoxyphenoxy)ethylamino]octyl]-2,4-dioxothiazolidine] | 
6 | 98 to 99 °C | O=C1C2CCCN2C(=O)N1CCCCNCCOc1ccccc1Br (stereo not shown) (as salt: salt) [o, 2-[4-[2-(o-Bromophenoxy)ethylamino]butyl]-1,3-dioxoperhydropyrrolo[1,2-c]imidazole] | 

More lines, now with the values behind:

Row | Compound | melting point | also measured
7 | (±)-BAYx3702 |  | Protection (%) Serum Deprivation [1]: 25.9 ± 2.5%
8 | CCCN(CCC)C1CCc2cccc(O)c2C1 (stereo not shown) [Compound 8-OH-DPAT, 8-OH-DPAT] |  | Protection (%) Oxygen-glucose deprivation [2]: 54.0 ± 3.5%; Protection (%) Serum Deprivation [1]: 44.0 ± 1.4%
9 | O=C1c2ccccc2S(=O)(=O)N1CCCCNC[C@H]1CCc2ccccc2O1 [(−)-BAYx3702] |  | Protection (%) Oxygen-glucose deprivation [2]: 77.5 ± 8.6%; Infarcted Volumen Cortical [3]: 271.2 ± 54.7* mm^3; Infarcted Volumen Subcortical [3]: 105.5 ± 9.3 mm^3; Infarcted Volumen Total [3]: 376.7 ± 57.8* mm^3; Protection (%) Serum Deprivation [1]: 31.0 ± 2.9%
10 | O=C1C2CCCCN2C(=O)N1CCCCCCNCc1ccc2ccccc2n1 (stereo not shown) (as salt: salt) [ll, 2-[6-[(2-Quinolyl)methylamino]hexyl]-1,3-dioxoperhydroimidazo[1,5-a]pyridine] | 176 to 188 °C | 
11 | O=C1C2CCCN2C(=O)N1CCCCNCc1ccc2ccccc2n1 (stereo not shown) | 125 to 126 °C | 
